US20180200233A1, “COMPOSITIONS FOR PREVENTING CANCERS ASSOCIATED WITH HUMAN PAPILLOMA VIRUSES” (Loma Linda University, priority 2015, published 2018)

Tests used:
C33A cells = test: MTT cell viability, HPV- C33A cells with TRAIL; type: cell-based, human; conditions: 100 μM myricetin or 50 μM spinacine for 4 h
Experimental: FIGS. 5A-B are graphs showing myricetin and spinacine (5) re-sensitized HPV^+, but not HPV^−, cells to treatment with TRAIL. SiHa (2×10^4 cells per well) and C33A cells (1×10^4 cells per well) were seeded into a 96-well plate and allowed to incubate overnight, then cells were pre-treated in the presence or absence of myricetin (100 μM) (FIG. 5A) or spinacine (50 μM) (FIG. 5B) for 4 h. The indicated concentration of TRAIL, along with cycloheximide (5 μg/ml) was added and cells were allowed to incubate overnight. Cell viability was measured by MTT assay, and the viability of cells untreated with TRAIL was set at 100%. Experiments were performed in triplicate, and error bars indicate the standard deviation.
(§1) The extracellular domain of human TRAIL was cloned into a pTriEx expression plasmid containing N-terminal Hisx6 tag. His-TRAIL was expressed in the E. coli BL-21 pLys strain and purified as previously described. Doxorubicin and cisplatin were purchased from Sigma. His-TRAIL, doxorubicin, and cisplatin were diluted in PBS to the desired concentration before using. […] All experiments were repeated at least three times (three biological replicates, carried out on different days), with each experimental group measured in triplicate within each of these individual experiments. […]

GST-E6/His-caspase 8 = target: T1, GST-E6/His-caspase 8 (Human papillomavirus type 16, UniProt P03126); conditions: Yuan et al. 2012; cited from earlier work
T1 construct: made in house

SiHa cells = test: in vitro; type: cell-based, human
Experimental: FIGS. 3A-E are graphs providing data regarding resistance of HPV^+ SiHa cells to TRAIL-, cisplatin- and […] apoptosis, in the presence and absence of small molecules as disclosed herein. (FIG. 3A) HPV^+ SiHa cells are resistant to TRAIL-induced apoptosis as compared to the human osteosarcoma cell line U2OS. Cells (2×10^4 cells per well) were seeded into a 96-well plate, allowed to incubate overnight, and then treated with indicated concentration of TRAIL in the presence of cycloheximide (5 μg/ml). The viability of cells was measured after overnight incubation using the MTT assay; the viability of cells untreated with TRAIL was set at 100% for each group. (FIG. 3B) The indicated concentrations of three small molecules were added to SiHa cells, and an MTT assay was preformed after overnight incubation. The viability of cells untreated with small molecules was set as 100%. (FIG. 3C) The indicated concentrations of myricetin or spinacine were added 4 h prior to TRAIL (100 ng/ml) in the presence of cycloheximide (5 μg/ml) and incubated at 37° C. overnight. The viability of cells untreated with small molecules was set at 100%. (FIG. 3D and FIG. 3E) SiHa cells (2×10^4 cells per well) were seeded into a 96-well plate and allowed to incubate overnight. 100 μM of myricetin and 50 μM of spinacine were added 4 h prior to either (FIG. 3D) doxorubicin or (FIG. 3E) cisplatin. Cell viability was measured after overnight incubation using the MTT assay, and the viability of cells untreated with either myricetin or spinacine was set at 100%. Experiments were performed in triplicate, and error bars indicate the standard deviation.
The molecules were then tested to determine whether those that block E6/caspase 8 binding in vitro could also act in the context of a cell. SiHa cells are an HPV^+ cell line, derived from a cervical carcinoma, which serves as a commonly used model for HPV-associated malignancies. To determine whether HPV^+ SiHa cells are resistant to TRAIL-induced apoptosis, SiHa cells were treated with TRAIL and cell viability was assessed. TRAIL-sensitive, HPV^− U2OS cells served as a positive control. […] Myricetin and/or spinacine were tested to determine if they could sensitize these HPV^+ cells to TRAIL-induced apoptosis. […] Table 2 lists and compares the concentrations of the three tested compounds required to induce death in 50% of SiHa cells in the presence or absence of TRAIL.
as §1, with “using. To measure cell survival following treatment with TRAIL, cisplatin and doxorubicin, SiHa (2×10^4/well), C33A (1×10^4/well), and HNSCC cells (2×10^4/well) were seeded into 96-well plates and allowed to adhere overnight. Small molecules at the desired concentration were added and incubated at 37° C. for 4 h. As indicated, TRAIL, cisplatin or doxorubicin was then added.” for “using.”

[1] = Galli et al. 1989, 13-week oral study in rats, spinacine hydrochloride; cited from earlier work
[2] = system: UPCI-SCC90-UP-Clone 35 (#90) cells; test: MTT cell viability, HPV+ HNSCC cell line #90 with doxorubicin; type: cell-based; conditions: 2 μM doxorubicin
Experimental: FIGS. 8A-B includes graphs showing myricetin and spinacine (5) re-sensitized HPV^+, but not HPV^−, HNSCC cell lines to treatment with doxorubicin. One HPV^− (FIG. 8A; #84) and one HPV^+ (FIG. 8B; #90) head and neck cancer cell line (2×10^4 cells per well) were seeded into 96-well plates and allowed to incubate overnight, then cells were pre-treated with myricetin or spinacine (0-12.5 μM) for 4 h. 2 μM of doxorubicin was added and cells were allowed to incubate overnight. Cell viability was measured by MTT assay, and the viability of cells untreated with small molecules was set at 100%. Experiments were performed in triplicate, and error bars indicate the standard deviation.
The results described above indicate that myricetin and spinacine sensitize HPV^+ HNSCC cells to TRAIL-induced apoptosis. To determine whether this sensitization also occurs in the context of chemotherapeutic agents, several HNSCC cell lines were tested for their responses to combination treatments.
as §1, with “described.” for “described. Doxorubicin and cisplatin were purchased from Sigma. His-TRAIL, doxorubicin, and cisplatin were diluted in PBS to the desired concentration before using.”

GST-E6 = target: T2, GST-E6 (Human papillomavirus type 16, UniProt P03126); test: Direct binding to E6 (FIG. 9); design: species or system HPV 16
T2 construct: made in house
T2 sequence (P03126 whole entry): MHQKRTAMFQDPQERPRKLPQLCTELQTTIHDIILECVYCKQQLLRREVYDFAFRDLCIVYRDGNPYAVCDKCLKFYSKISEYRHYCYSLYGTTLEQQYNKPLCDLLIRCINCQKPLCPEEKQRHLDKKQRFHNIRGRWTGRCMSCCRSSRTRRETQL

T1 sequence (P03126 whole entry): as above

SMILES	response of C33A cells to TRAIL-mediated apoptosis after pre-treatment (in words) (C33A cells)	inhibition of the E6/caspase 8 interaction in vitro (in words) (GST-E6/His-caspase 8)	toxicity to SiHa cells in the absence of TRAIL (in words) (SiHa cells)	safety and tolerability (in words) [1]	cell death of HPV+ #90 cells with doxorubicin plus small molecule (in words) ([2]; small molecules 0-12.5 μM)	sensitization of #90 to doxorubicin ([2]; concentration of 12.5 μM)	binding to GST-E6 (in words) (GST-E6; FIG. 9)	N (binding stoichiometry) (GST-E6; spinacine binding to GST-E6, FIG. 9)
O=c1c(O)c(-c2cc(O)c(O)c(O)c2)oc2cc(O)cc(O)c12 [Myricetin, reference compound]	remained resistant	can inhibit the E6/caspase 8 interaction in vitro	low toxicity					
O=C(O)C1Cc2[nH]cnc2CN1 (stereo not drawn) [Compound 5, 4,5,6,7-Tetrahydro-1H-imidazo(4,5-c)pyridine-6-carboxylic acid]			low toxicity	safe, well-tolerated	higher efficiency than did myricetin	up to 50%	able to bind to GST-E6	about 0.5
